We go through twelve molecules from patent US8623906B2, “Carboxy isatin hydrazones and their esters as Shp2 inhibitors” (H. Lee Moffitt Cancer Center and Research Institute, Inc., priority 2009, dated 2014).

In test [1] the test system is GST-Shp2 PTP domain protein. Type of test: biochemical. The procedure:
All reactions were monitored by thin layer chromatography (TLC) or ^1H NMR. Some products, which could not be purified by simply washing, were purified by Flashmaster chromatography. […] After the purity and structure were confirmed, samples were tested for IC50 by DiFMUP assay, seen in Table 1, appended.
Curve fitting and IC50 were obtained using the GraphPad Prism program (GraphPad Software).

Another test has as its system Shp2 in MDA-MB-468 cells. Type of test: cell-based. The procedure: (§1) To measure Shp2 PTP activity in immune complexes, cells were lysed in ice-cold PTP lysis buffer [25 mM Hepes, pH 7.4, 150 mM NaCl, 1 mM DTT, 2 mM EDTA, 0.5% Triton X-100, 1:50 diluted protease inhibitor cocktail (Roche, Basel, Switzerland)]. Cell lysate supernatants (0.2 mg/each) were incubated with an anti-Shp2 antibody (Santa Cruz Biotechnology, Santa Cruz, Calif.) or with an anti-Flag antibody M2 (Sigma-Aldrich, St. Louis, Mo.) plus protein G-Sepharose for 2 h at 4° C. Immunoprecipitates were washed twice with the PTP lysis buffer and twice with the Reaction Buffer A (25 mM Hepes, pH 7.4, 50 mM NaCl, 1 mM DTT, 0.05% Triton X-100). Each Shp2 immune complex was resuspended in 100 μl of reaction buffer containing 50 μM DiFMUP and incubated at room temperature for 20 min. After a brief centrifugation, supernatants were transferred into 96-well plates and the DiFMU fluorescence signal was measured. The remaining immune complex pellets were used for immunoblotting analysis of Shp2 protein.

Test [2] has as its system Shp2^E76K in TF-1/Shp2^E76K cells. Type of test: cell-based. The procedure: as §1
The next test concerns pISRE-Luc in HT-29 cells. The test is described as follows: ISRE luciferase reporter assay. It is filed as cell-based. Particulars: 50 U/ml IFN-γ alone, 6 h. How it is done:
Luciferase reporter assays were conducted using HT-29 cells (5×10^5 cells/each in 12-well plate) were co-transfected with 1.6 μg pISRE-Luc (Clontech, Mountain View, Calif.) and 0.4 μg β-gal plasmids with LipofectAMINE 2000 reagent. Eighteen hours after transfection, cells were incubated in fresh medium, pretreated with indicated concentrations of SPI-112Me or mocked treated for 2 h, and then stimulated with 50 U/ml IFN-γ for 6 h or left unstimulated. Luciferase and β-galactosidase activities were determined as described (Ren, et al., Shp2E76K mutant confers cytokine-independent survival of TF-1 myeloid cells by up-regulating Bcl-XL. J Biol Chem 2007; 282:36463-73). The luciferase activity was then normalized to β-galactosidase-galactosidase activity as an internal control for transfection efficiency.

For the next test, the system named is HT-29 cells. The test can be described thus: Viable cell number (CellTiterGlo), 4 days, Bliss synergism. Particulars: IFN-γ 100 U/ml alone. On the technique in general: In ATP-based viability assays light output follows the ATP content of the culture.

Like-named read-outs stand apart in the source and are kept apart here.

For the molecule `Cc1cccc(N2CCN(S(=O)(=O)c3ccc4c(c3)CCN4C(=O)CCC(=O)O)CC2)c1` [XW2-057], in test [1] (Table 1, DiFMUP assay), the IC50 (usually the point on the concentration scale where inhibition reaches its midpoint) amounted to 3.4 ± 2.3 µM. `O=C(Nc1cccc(Cl)c1)N1CCc2cc(S(=O)(=O)N3CCN(c4cccc(Cl)c4)CC3)ccc21` [JHE-02-032A] had an IC50 in test [1] of 8.3 µM. In test [1], `COc1cccc(C(=O)N2CCc3cc(S(=O)(=O)N4CCN(c5cccc(Cl)c5)CC4)ccc32)c1` [JHE-02-035A] returned an IC50 of 7.8 µM. `O=C(O)CCC(=O)N1CCc2cc(S(=O)(=O)N3CCN(c4ccc(C(=O)O)cc4)CC3)ccc21` [XW3-002]: the half-inhibitory concentration (IC50) in test [1] (Table 1, DiFMUP assay) is 6.1 ± 1.8 µM. Turning to `O=C(c1ccc(Cl)c(Cl)c1)N1CCc2cc(S(=O)(=O)N3CCN(c4cccc(Cl)c4)CC3)ccc21` [JF023], in test [1], half-maximal inhibition (IC50) was put at 7.1 µM. This lies in the single-digit micromolar range. The molecule `COc1cccc(NC(=O)N2CCc3cc(S(=O)(=O)N4CCN(c5cccc(Cl)c5)CC4)ccc32)c1` [JHE-02-032B] had an IC50 in test [1] of 4.8 µM. `O=C(O)/C=C/C(=O)N1CCc2cc(S(=O)(=O)N3CCN(c4cccc(Cl)c4)CC3)ccc21` [JHE-01-129A] yielded an IC50 in test [1] of 2.8 µM. Compared with the last molecule, the IC50 is about 1.7-fold lower.

Molecule `O=C(O)CCC(=O)N1CCc2cc(S(=O)(=O)N3CCN(c4ccc(F)cc4)CC3)ccc21` [XW2-011B] had an IC50 in test [1] of 47.8 µM. `O=C1Nc2ccc(S(=O)(=O)NCc3ccc(F)cc3)cc2/C1=N/Nc1cccc(C(=O)O)c1` [SPI-112, (Z)-3-(2-(5-(N-(4-fluorobenzyl)sulfamoyl)-2-oxoindolin-3-ylidene)hydrazinyl)benzoic acid]: the IC50 in test [1] was 2.6 µM. The “effect on EGF-stimulated Shp2 PTP activity” value with Shp2 in MDA-MB-468 cells is recorded as “did not affect”. Besides, the “effect on Shp2^E76K PTP activity in treated cells” value in test [2] is “no decrease”.

Molecule `COC(=O)c1cccc(N/N=C2\C(=O)Nc3ccc(S(=O)(=O)NCc4ccc(F)cc4)cc32)c1` [SPI-112Me, (Z)-3-(2-(5-(N-(4-fluorobenzyl)sulfamoyl)-2-oxoindolin-3-ylidene) hydrazinyl)benzoic acid methyl ester] returned an IC50 in test [1] above 100 µM. In the test on Shp2 in MDA-MB-468 cells (20 μM pretreatment, EGF 50 ng/ml, 10 min), the “reduction of EGF-stimulated Shp2 PTP activity” value was 77%. Besides, the “effect on Shp2^E76K PTP activity in treated cells” value in test [2] (GM-CSF-free medium) was “lower Shp2^E76K PTP activity”. In test [1] (Table 1, DiFMUP assay), `O=C(O)CCC(=O)N1CCCc2cc(S(=O)(=O)N3CCN(c4cccc(Cl)c4)CC3)ccc21` [JHE-02-023] came in with an IC50 of 37.3 ± 5.3 µM.

B1: IFN-γ: interferon gamma used to stimulate HT-29 cells, alone or combined with SPI-112Me (protein, UniProt P01579 24-161, looked up)
Interferon gamma: QDPYVKEAENLKKYFNAGHSDVADNGTLFLGILKNWKEESDRKIMQSQIVSFYFKLFKNFKDDQSIQKSVETIKEDMNVKFFNSNKKKRDDFEKLTNYSVTDLNVQRKAIHELIQVMAELSPAAKTGKRKRSQMLFRG
For the molecule B1, the “activation of ISRE luciferase activity” value in the test on pISRE-Luc in HT-29 cells worked out at 26%. The fraction of inhibition with HT-29 cells was 0.18.
